Data as given in ChEMBL document CHEMBL1158251, “Determination of oenothein B as the active 5-alpha-reductase-inhibiting principle of the folk medicine Epilobium parviflorum” (J Nat Prod, 1996).

Test: Inhibition of 5alpha reductase from human prostatic hyperplasia

| Structure (SMILES) | IC50 [µM] |
| --- | --- |
| CC(C)(C)NC(=O)[C@H]1CC[C@H]2[C@@H]3CC[C@H]4NC(=O)C=C[C@]4(C)[C@H]3CC[C@]12C [FINASTERIDE] | 0.01 |
| O=C(O[C@H]1[C@@H]2OC(=O)c3cc(O)c(O)c(O)c3-c3c4cc(c(O)c3O)Oc3c(cc(O)c(O)c3O)C(=O)O[C@H]3C(O)O[C@@H]5COC(=O)c6cc(O)c(O)c(O)c6-c6c(cc(c(O)c6O)Oc6c(cc(O)c(O)c6O)C(=O)O[C@H]1C(O)O[C@@H]2COC4=O)C(=O)O[C@H]5[C@@H]3OC(=O)c1cc(O)c(O)c(O)c1)c1cc(O)c(O)c(O)c1 (some centres not stated) [OENOTHEIN B] | 22 |
